{
  "source": "patent US9988371B2",
  "about": "“Benzimidazole analogues and related methods” (The Arizona Board of Regents, on Behalf of the University …, priority 2014, dated 2018)",
  "key": {"FYN": {"molecular_target": "T1, FYN (Homo sapiens, UniProt P06241)", "T1 construct": "purchased KINOMEscan", "assay": "KINOMEscan kinase panel", "assay_type": "binding", "settings": "50 nM", "description": "(§1) Pz-1 was exceptionally potent on RET and all tested RET mutants including gatekeeper mutants RET/V804M at less than 1 nM (FIGS. 1-3). The RET biochemical assay described herein was not suitable to determine activity of inhibitors having an IC50 of less than 1 nM, as the concentration of the RET enzyme in the assay was 2 nM. An intermediate compound was therefore used for the kinetics studies. […] Pz-1 was screened at concentration of 50 nM against 91 kinases in KINOMEscan, representing a diversity of each Kinome cluster. The kinase assays in KINOMEScan were more sensitive than the biochemical assays described above."}, "GKA": {"test_system": "GKA", "assay": "KINOMEscan kinase panel", "assay_type": "binding", "settings": "50 nM", "description": "as §1"}, "SRC": {"molecular_target": "T2, SRC (Homo sapiens, UniProt P12931)", "T2 construct": "purchased KINOMEscan", "assay": "KINOMEscan kinase panel", "assay_type": "binding", "settings": "50 nM", "description": "as §1"}, "TRKB": {"molecular_target": "T3, TRKB (Homo sapiens, UniProt Q16620)", "T3 construct": "purchased KINOMEscan", "T3 sequence (Q16620 32-822)": "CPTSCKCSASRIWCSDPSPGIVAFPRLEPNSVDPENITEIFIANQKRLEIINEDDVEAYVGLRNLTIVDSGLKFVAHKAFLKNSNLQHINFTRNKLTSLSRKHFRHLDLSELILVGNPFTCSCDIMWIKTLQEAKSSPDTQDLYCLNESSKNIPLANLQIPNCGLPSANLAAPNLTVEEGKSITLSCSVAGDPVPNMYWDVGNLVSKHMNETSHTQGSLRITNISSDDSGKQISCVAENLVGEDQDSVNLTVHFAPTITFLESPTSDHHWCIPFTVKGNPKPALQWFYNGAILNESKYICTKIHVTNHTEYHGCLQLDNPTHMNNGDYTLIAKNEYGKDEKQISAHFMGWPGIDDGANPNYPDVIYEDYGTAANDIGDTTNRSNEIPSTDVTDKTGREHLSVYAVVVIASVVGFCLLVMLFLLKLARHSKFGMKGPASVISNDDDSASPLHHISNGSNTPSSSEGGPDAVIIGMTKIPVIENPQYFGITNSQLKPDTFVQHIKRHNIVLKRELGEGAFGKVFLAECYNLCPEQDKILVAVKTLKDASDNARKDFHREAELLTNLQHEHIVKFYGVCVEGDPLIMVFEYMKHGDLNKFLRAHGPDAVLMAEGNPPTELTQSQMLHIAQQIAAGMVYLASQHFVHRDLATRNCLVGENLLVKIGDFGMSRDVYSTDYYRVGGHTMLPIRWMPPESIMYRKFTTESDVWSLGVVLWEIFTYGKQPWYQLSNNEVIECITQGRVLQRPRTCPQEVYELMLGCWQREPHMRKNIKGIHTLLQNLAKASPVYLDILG", "assay": "KINOMEscan kinase panel", "assay_type": "binding", "settings": "50 nM", "description": "as §1"}, "TRKC": {"molecular_target": "T4, TRKC (Homo sapiens, UniProt Q16288)", "T4 construct": "purchased KINOMEscan", "T4 sequence (Q16288 32-839)": "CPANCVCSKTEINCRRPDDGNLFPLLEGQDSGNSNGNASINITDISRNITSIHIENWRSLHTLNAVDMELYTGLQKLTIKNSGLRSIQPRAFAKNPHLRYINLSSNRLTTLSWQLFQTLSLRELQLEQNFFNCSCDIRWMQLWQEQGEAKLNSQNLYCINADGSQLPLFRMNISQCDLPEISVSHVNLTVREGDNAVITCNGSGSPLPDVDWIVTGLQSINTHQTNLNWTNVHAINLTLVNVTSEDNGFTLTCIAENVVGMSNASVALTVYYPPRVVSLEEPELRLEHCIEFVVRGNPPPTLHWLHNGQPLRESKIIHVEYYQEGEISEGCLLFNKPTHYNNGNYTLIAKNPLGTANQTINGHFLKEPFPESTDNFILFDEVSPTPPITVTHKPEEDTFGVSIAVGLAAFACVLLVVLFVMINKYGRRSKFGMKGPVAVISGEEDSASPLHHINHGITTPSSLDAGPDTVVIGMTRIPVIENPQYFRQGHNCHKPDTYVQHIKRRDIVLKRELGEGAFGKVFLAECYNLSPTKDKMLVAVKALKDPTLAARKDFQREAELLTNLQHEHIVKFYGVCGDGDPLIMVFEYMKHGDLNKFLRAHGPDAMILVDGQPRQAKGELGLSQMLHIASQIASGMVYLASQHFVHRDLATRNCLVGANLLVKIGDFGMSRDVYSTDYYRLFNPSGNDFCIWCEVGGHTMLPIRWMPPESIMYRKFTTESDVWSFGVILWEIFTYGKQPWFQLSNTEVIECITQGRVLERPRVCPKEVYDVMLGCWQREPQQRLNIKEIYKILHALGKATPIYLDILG", "assay": "KINOMEscan kinase panel", "assay_type": "binding", "settings": "50 nM", "description": "as §1"}, "pMAPK": {"test_system": "pMAPK", "assay": "pMAPK immunoblot in Nthy-ori-3-1 cells", "assay_type": "cell-based, human", "settings": "Nthy-ory-3-1, non-transformed with oncogenic RET", "description": "FIG. 3: Photographs of blots showing inhibition of RET protein endogenously expressed in TT cells (human MTC cell line expressing RET/C634W) by indicated concentrations of Pz-1 or vehicle (NT: not treated) and reduced effects in thyroid non-transformed Nthy-ori-3-1 cells. Serum-starved human TT and thyroid non-transformed Nthy-ori-3-1 cell lines were treated for 2 hr with indicated concentrations of Pz-1. 50 μg of total cell lysates were subjected to immunoblotting with anti-phospho-Y1062 (αp1062) and anti-phospho-905 (αpY905) RET antibodies, anti-phospho-MAPK (αpMAPK, T302/Y304), and anti-phospho-SHC (αpSHC, Y317) antibodies. The blots were normalized using anti-RET (αRET) and anti-SHC (αSHC).\nThe inhibition of RET auto-phosphorylation by Pz-1 was measured in several different cell lines including NIH3T3 fibroblasts expressing RET/C634Y or RET/M918T, TT expressing RET/C634W (MTC), Nthy-ory-3-1 (thyroid, non-transformed with RET; negative control), HEK293/RET/PTC1 (CCDC6-RET that can be found in PTC & lung cancer), HEK293/RET-KIF5B (that can be found in lung cancer), HEK293/RET/PTC3 (NCOA4-RET, that can be found in PTC & lung cancer), and HEK293 transfected with RET/C634R-V804M (FIGS. 1-3). […]\nProtein lysates were prepared according to standard procedures. […] Immune complexes were detected with the enhanced chemiluminescence kit (Amersham Pharmacia Biotech, Little Chalfort, UK). […]"}, "PK study in mice": {"assay": "PK study in mice", "assay_type": "in vivo", "settings": "for half-life: mouse, in vivo", "description": "(§2) For PK studies of Pz-1 in animals, a solution formulation for oral administration was created in 500 μL of polysorbate 80, 500 μL of EtOH, and 1.0 mL of pH 2 buffer. For the toxicity studies, a suspension formulation was developed in tween 20 (20%) and xanthan gum (0.125%).\nT112 (3-4 hrs) in rats was in line with T1/2 in mice (4.2 hrs)."}, "[1]": {"assay": "week-long toxicology study in mice", "assay_type": "in vivo", "description": "as §2\nSimilarly, the toxicity markers including phosphorus, creatinine, total bilirubin, GGT, ALP, glucose, total protein, albumin, globulin, calcium, cholesterol, and BUN were not impacted at any dose. […] At the highest dose, the concentration of ALT was slightly above the normal ALT level of 80 U/L, but below the toxicity threshold of 200 U/L. ALT levels can easily be monitored and can serve as a reversible toxicity marker in the clinical setting."}},
  "note": "Read-outs that look alike come from different tables or passages of the source.",
  "data": [
    {"smiles": "Cn1cc(-c2ccc3c(c2)ncn3-c2ccc(CC(=O)Nc3cc(C(C)(C)C)on3)cc2)cn1", "note": "[Pz-1, N-(5-(tert-butyl)isoxazol-3-yl)-2-(4-(5-(1-methyl-1H-pyrazol-4-yl)-1H-benzo[d]imidazol-1-yl)phenyl)acetamide]", "values": [
      {"measurement": "inhibition at 0.05 µM", "setting": "FYN", "value": "~90", "unit": "%"},
      {"measurement": "inhibition of GKA", "setting": "GKA", "value": "~90", "unit": "%"},
      {"measurement": "inhibition at 0.05 µM", "setting": "SRC", "value": "~90", "unit": "%"},
      {"measurement": "inhibition at 0.05 µM", "setting": "TRKB", "value": "~90", "unit": "%"},
      {"measurement": "inhibition at 0.05 µM", "setting": "TRKC", "value": "~90", "unit": "%"},
      {"measurement": "concentration at which pMAPK was inhibited", "setting": "pMAPK", "value": 100, "unit": "nM"},
      {"measurement": "AUC", "setting": "PK study in mice; 2 mg/kg, solution formulation", "value": 6.5, "unit": "µg/h/mL"},
      {"measurement": "half-life", "setting": "PK study in mice; oral, read-out: T1/2 (converted)", "value": 4.2, "unit": "h"},
      {"measurement": "half-life", "setting": "PK study in mice; po, 2 mg/kg, read-out: elimination half-life (converted)", "value": 3.8, "unit": "h"},
      {"measurement": "ALT in blood", "setting": "[1]; 10 mg/kg", "value": 22, "unit": "U/L"},
      {"measurement": "ALT in blood", "setting": "[1]; 30 mg/kg", "value": 51, "unit": "U/L"},
      {"measurement": "ALT in blood", "setting": "[1]; 100 mg/kg", "value": 96, "unit": "U/L"},
      {"measurement": "toxicity markers (phosphorus, creatinine, total bilirubin, GGT, ALP, glucose, total protein, albumin, globulin, calcium, cholesterol, BUN)", "setting": "[1]; any dose", "value": "not impacted"},
      {"measurement": "organ pathological analysis in heart, kidney, and liver", "setting": "[1]; even at 100 mg/kg", "value": "did not show adverse effects"},
      {"measurement": "toxicity", "setting": "[1]; one week, daily dose escalation from 10 mg/kg to 100 mg/kg, suspension formulation", "value": "no significant toxicity"}
    ]}
  ]
}
